Experimental data from patent USRE47689E1, “Compounds for treating spinal muscular atrophy” (PTC Therapeutics, Inc., priority 2011, dated 2019).

Experiments:
Smn protein = Smn protein assay in cultured cells (SMN HTRF); assay type: cell-based, human; conditions: 48 hours; for EC1.5x (concentration giving 1.5-fold Smn protein increase): SMA Type 1 patient fibroblast cells (GM03813), 7-point concentration curve, SMN HTRF, concentration producing 1.5 times Smn protein vs DMSO vehicle control, read-out: EC1.5x for Smn protein expression; for maximum fold (Fold) increase of Smn protein: SMA patient fibroblast cells, 7-point concentration data, fold increase relative to vehicle control (SMN HTRF)
Outline: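 Smn in SMA fibroblast lysates, measured by anti-SMN HTRF after 48 h compound exposure; EC1.5x from fold change over vehicle.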

[1] = tested on: SMN2 minigene (full length SMN2 minigene mRNA containing SMN2 exon 7); assay: SMN2 minigene mRNA splicing RT-qPCR assay in cultured cells; assay type: cell-based, human; conditions: Homo sapiens, HEK293-H; HEK293H cells stably transfected with SMN2-A minigene; 24 hours; 7-point concentration curve; 1.5-fold relative to vehicle-treated cells; read-out: EC1.5x for production of full length SMN2 mRNA
Outline: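 Full-length SMN2 minigene mRNA (exon 7 included), minigene-specific and not endogenous SMN, quantified by RT-qPCR multiplexed with GAPDH in stably transfected HEK293H cells after 24 h compound exposure at 37° C. Abundance from efficiency-corrected Ct, normalized to GAPDH and vehicle; EC1.5x reported as star bins.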

SMILES | EC1.5x (concentration giving 1.5-fold Smn protein increase) (Smn protein) | maximum fold (Fold) increase of Smn protein (Smn protein) | EC (1.5-fold) [1] | melting point
CNCCCc1ccc2cc(-c3cc(F)c4nc(C)cn4c3)c(=O)oc2c1 [Compound 913, 3-(8-fluoro-2-methylimidazo[1,2-a]pyridin-6-yl)-7-[3-(methylamino)propyl]-2H-chromen-2-one] | < 300 nM | ***** (fold increase >1.65) | < 0.1 µM | 163 to 166 °C
Cc1cn2cc(-c3cc4ccc(C5CCN(CC(C)C)CC5)cc4oc3=O)nc2c(C)n1 [Compound 914, 3-(6,8-dimethylimidazo[1,2-a]pyrazin-2-yl)-7-[1-(2-methylpropyl)piperidin-4-yl]-2H-chromen-2-one] | < 300 nM | **** (fold increase between >1.5 and ≤1.65) | < 0.1 µM | 191 to 198 °C
Cc1cn2cc(-c3cc4ccc(OC5CCN(C(CO)CO)CC5)cc4oc3=O)nc2c(C)n1 [Compound 915, 7-{[1-(1,3-dihydroxypropan-2-yl)piperidin-4-yl]oxy}-3-(6,8-dimethylimidazo[1,2-a]pyrazin-2-yl)-2H-chromen-2-one] | 300 to 1000 nM | **** (fold increase between >1.5 and ≤1.65) | < 0.1 µM | 206 to 210 °C
Cc1cn2cc(-c3cc4ccc(C5CCN(CC(C)C)CC5)cc4oc3=O)nc2cn1 [Compound 916, 3-(6-methylimidazo[1,2-a]pyrazin-2-yl)-7-[1-(2-methylpropyl)piperidin-4-yl]-2H-chromen-2-one] | 300 to 1000 nM | **** (fold increase between >1.5 and ≤1.65) | 0.1 to 0.3 µM | 260 to 270 °C
Cc1cn2cc(-c3cc4ccc(C5CCN(CCCF)CC5)cc4oc3=O)nc2cn1 [Compound 917, 7-[1-(3-fluoropropyl)piperidin-4-yl]-3-(6-methylimidazo[1,2-a]pyrazin-2-yl)-2H-chromen-2-one] | < 300 nM | ***** (fold increase >1.65) | < 0.1 µM | 224 to 234 °C
Cc1cn2cc(-c3cc4ccc(N5CCC(N)CC5)cc4oc3=O)nc2c(C)n1 [Compound 919, 7-(4-aminopiperidin-1-yl)-3-(6,8-dimethylimidazo[1,2-a]pyrazin-2-yl)-2H-chromen-2-one] | < 300 nM | **** (fold increase between >1.5 and ≤1.65) | < 0.1 µM | 262 to 269 °C
Cc1cn2cc(-c3cc4ccc(N5CCC(C)(N)CC5)cc4oc3=O)nc2c(C)n1 [Compound 920, 7-(4-amino-4-methylpiperidin-1-yl)-3-(6,8-dimethylimidazo[1,2-a]pyrazin-2-yl)-2H-chromen-2-one] | < 300 nM | ***** (fold increase >1.65) | < 0.1 µM | 190 to 192 °C
Cc1cn2cc(-c3cc4ccc(N5CCC(N(C)C)CC5)cc4oc3=O)nc2c(C)n1 [Compound 921, 7-[4-(dimethylamino)piperidin-1-yl]-3-(6,8-dimethylimidazo[1,2-a]pyrazin-2-yl)-2H-chromen-2-one] | < 300 nM | **** (fold increase between >1.5 and ≤1.65) | < 0.1 µM | 189 to 193 °C
CCN(CC)C1CCN(c2ccc3cc(-c4cn5cc(C)nc(C)c5n4)c(=O)oc3c2)CC1 [Compound 922, 7-[4-(diethylamino)piperidin-1-yl]-3-(6,8-dimethylimidazo[1,2-a]pyrazin-2-yl)-2H-chromen-2-one] | 300 to 1000 nM | *** (fold increase between >1.35 and ≤1.5) | < 0.1 µM | 205 to 207 °C
Cc1cn2cc(-c3cc4ccc(N5CCC(NC(C)C)CC5)cc4oc3=O)nc2c(C)n1 [Compound 923, 3-(6,8-dimethylimidazo[1,2-a]pyrazin-2-yl)-7-[4-(propan-2-ylamino)piperidin-1-yl]-2H-chromen-2-one] | 300 to 1000 nM | *** (fold increase between >1.35 and ≤1.5) | < 0.1 µM | 216 to 218 °C
Cc1cn2cc(-c3cc4ccc(N5CCC(NC6CCC6)CC5)cc4oc3=O)nc2c(C)n1 [Compound 924, 7-[4-(cyclobutylamino)piperidin-1-yl]-3-(6,8-dimethylimidazo[1,2-a]pyrazin-2-yl)-2H-chromen-2-one] | < 300 nM | **** (fold increase between >1.5 and ≤1.65) | < 0.1 µM | 222 to 225 °C
Cc1cn2cc(-c3cc4ccc(N5CCC(NC(C)CO)CC5)cc4oc3=O)nc2c(C)n1 (stereo not shown) [Compound 925, 3-(6,8-dimethylimidazo[1,2-a]pyrazin-2-yl)-7-{4-[(1-hydroxypropan-2-yl)amino]piperidin-1-yl}-2H-chromen-2-one] | 1000 to 3000 nM | *** (fold increase between >1.35 and ≤1.5) | < 0.1 µM | 185 to 189 °C
CCNCCCc1ccc2cc(-c3cn4cc(C)nc(C)c4n3)c(=O)oc2c1 [Compound 926, 3-(6,8-dimethylimidazo[1,2-a]pyrazin-2-yl)-7-[3-(ethylamino)propyl]-2H-chromen-2-one] | < 300 nM | **** (fold increase between >1.5 and ≤1.65) | < 0.1 µM | 184 to 186 °C
Cc1cn2cc(-c3cc4ccc(N5CCC(N(CCO)CCO)CC5)cc4oc3=O)nc2c(C)n1 [Compound 928, 7-{4-[bis(2-hydroxyethyl)amino]piperidin-1-yl}-3-(6,8-dimethylimidazo[1,2-a]pyrazin-2-yl)-2H-chromen-2-one] |  | *** (fold increase between >1.35 and ≤1.5) | 0.1 to 0.3 µM | 209 to 212 °C
Cc1cn2cc(-c3cc4ccc(N5CCC(NC(CO)CO)CC5)cc4oc3=O)nc2c(C)n1 [Compound 929, 7-{4-[(1,3-dihydroxypropan-2-yl)amino]piperidin-1-yl}-3-(6,8-dimethylimidazo[1,2-a]pyrazin-2-yl)-2H-chromen-2-one] | 1000 to 3000 nM | *** (fold increase between >1.35 and ≤1.5) | < 0.1 µM | 251 to 256 °C
CCNCCOc1ccc2cc(-c3cn4cc(C)nc(C)c4n3)c(=O)oc2c1 [Compound 930, 3-(6,8-dimethylimidazo[1,2-a]pyrazin-2-yl)-7-[2-(ethylamino)ethoxy]-2H-chromen-2-one] | < 300 nM | ***** (fold increase >1.65) | < 0.1 µM | 189 to 193 °C
COCCNCCCc1ccc2cc(-c3cn4cc(C)nc(C)c4n3)c(=O)oc2c1 [Compound 931, 3-(6,8-dimethylimidazo[1,2-a]pyrazin-2-yl)-7-{3-[(2-methoxyethyl)amino]propyl}-2H-chromen-2-one] | 300 to 1000 nM | **** (fold increase between >1.5 and ≤1.65) | < 0.1 µM | 147 to 150 °C
Cc1cn2cc(-c3cc4ccc(CCCNCC5CCCO5)cc4oc3=O)nc2c(C)n1 (stereo not shown) [Compound 932, 3-(6,8-dimethylimidazo[1,2-a]pyrazin-2-yl)-7-{3-[(tetrahydrofuran-2-ylmethyl)amino]propyl}-2H-chromen-2-one] | < 300 nM | **** (fold increase between >1.5 and ≤1.65) | < 0.1 µM | 147 to 150 °C
Cc1cn2cc(-c3cc4ccc(CCCNCc5ccsc5)cc4oc3=O)nc2c(C)n1 [Compound 934, 3-(6,8-dimethylimidazo[1,2-a]pyrazin-2-yl)-7-{3-[(thiophen-3-ylmethyl)amino]propyl}-2H-chromen-2-one] |  | ** (fold increase between >1.2 and ≤1.35) | < 0.1 µM | 149 to 152 °C
Cc1cn2cc(-c3cc4ccc(CCCNCc5ccccn5)cc4oc3=O)nc2c(C)n1 [Compound 935, 3-(6,8-dimethylimidazo[1,2-a]pyrazin-2-yl)-7-{3-[(pyridin-2-ylmethyl)amino]propyl}-2H-chromen-2-one] | 300 to 1000 nM | **** (fold increase between >1.5 and ≤1.65) | 0.1 to 0.3 µM | 177 to 180 °C
Cc1cn2cc(-c3cc4ccc(CCCNCc5ccncc5)cc4oc3=O)nc2c(C)n1 [Compound 936, 3-(6,8-dimethylimidazo[1,2-a]pyrazin-2-yl)-7-{3-[(pyridin-4-ylmethyl)amino]propyl}-2H-chromen-2-one] | < 300 nM | ***** (fold increase >1.65) | < 0.1 µM | 155 to 159 °C
